Counter-ions that a name gives are not always drawn.
Test system: superior mesenteric artery (contracted by potassium chloride)
Assay: Vessel Smooth Muscle Relaxation Action (V.R.)
Type: cell-based, rabbit
Settings: Oryctolagus cuniculus; concentration relaxing KCl-contracted strain to 50%; cumulative administration; read-out: V.R. (ED50)
Text: The specimen was suspended by loading a strain in Krebs-Henseleit solution through which an oxygen gas containing 5% carbon dioxide was bubbled. The specimen was contracted by adding potassium chloride to maintain a predetermined strain. Thereafter, a test compound was cumulatively administrated.

Row | SMILES | EC50 [µM]
1 | O=S(=O)(NC(Cc1ccc(OS(=O)(=O)c2cccc3cnccc23)cc1)CN1CCN(c2ccccc2)CC1)c1cccc2cnccc12 (centres unmarked) [Example 34] | 1.8
2 | COc1ccc(CC(NS(=O)(=O)c2cccc3cnccc23)C(=O)N2CCCN(C(=O)Cc3ccccc3)CC2)cc1 (centres unmarked) [Example 120, 1-[N-(5-Isoquinolinesulfonyl)-O-Methyl]Tyrosyl-4-Phenylacetylhomopiperazine] | 19 ± 3
3 | COc1ccc(CC(CN2CCN(C(=O)OCc3ccccc3)CC2)NS(=O)(=O)c2cccc3cnccc23)cc1 (centres unmarked) [Example 73, N-[2-(4-benzyloxycarbonylpiperazinyl)-1-(p-methoxybenzyl)ethyl]-5-isoquinolinesulfonamide] | 14
4 | CN(C(Cc1ccc(OS(=O)(=O)c2cccc3cnccc23)cc1)CN1CCN(c2ccccn2)CC1)S(=O)(=O)c1cccc2cnccc12 (centres unmarked) [Example 45, N-{1-[p-(5-isoquinolinesulfonyloxy)benzyl]-2-[4-(2-pyridyl)piperazinyl]ethyl}-N-methyl-5-isoquinolinesulfonamide] | 7.5
5 | O=S(=O)(c1cccc2cnccc12)N1Cc2cc(O)c(O)cc2CC1CN1CCN(c2ccccc2)CC1 (centres unmarked) [Example 10, 6,7-Dihydroxy-2-(5-Isoquinolinesulfonyl)-3-[(4-Phenylpiperazinyl)methyl]-1,2,3,4-tetrahydroisoquinoline] | 6.4
6 | CN(C(Cc1ccc(O)cc1)CN1CCN(S(=O)(=O)c2cccc3cnccc23)CC1)S(=O)(=O)c1cccc2cnccc12 (centres unmarked) [Example 77, N-{1-(p-hydroxybenzyl]-2-[4-(5-isoquinolinesulfonyl)piperazinyl]ethyl}-N-methyl-5-isoquinolinesulfonamide] | 1.4
7 | COc1ccc(CC(CN2CCN(C(=O)OCc3ccccc3)CC2)N(C)S(=O)(=O)c2cccc3cnccc23)cc1 (centres unmarked) [Example 72, N-[2-(4-benzyloxycarbonylpiperazinyl)-1-(p-methoxybenzyl)ethyl]-N-methyl-5-isoquinolinesulfonamide] | 4
8 | CN(C(Cc1ccc(OS(=O)(=O)c2cccc3ccccc23)cc1)CN1CCN(C(=O)OCc2ccccc2)CC1)S(=O)(=O)c1cccc2ccccc12 (stereo not drawn) [Example 78, N-{2-(4-benzyloxycarbonylpiperazinyl)-1-[p-(α-naphtharenesulfonyloxy)benzyl]ethyl}-N-methyl-α-naphtharenesulfonamide] | 1.8
9 | CN(c1ccccc1NCC=Cc1cccnc1)S(=O)(=O)c1cccc2cnccc12 [Example 146, N-{2-[3-(3-pyridyl)allylamino)phenyl}-N-methyl-5-isoquinolinesulfonamide] | 2.8
10 | CN(C(Cc1ccc(O)c(O)c1)CN1CCN(c2ccccc2)CC1)S(=O)(=O)c1cccc2cnccc12 (centres unmarked) [Example 7, N-{1-[(3,4-Dihydroxyphenyl)Methyl]-2-(4-Phenylpiperazinyl)Ethyl}-N-Methyl-Isoquinoline Sulfonamide] | 1.6
11 | O=S(=O)(NC(Cc1ccc(O)c(O)c1)CN1CCN(c2ccccc2)CC1)c1cccc2cnccc12 (centres unmarked) [Example 8, N-{1-[(3,4-Dihydroxyphenyl)Methyl]-2-(4-Phenylpiperazinyl)Ethyl}-5-Isoquinoline Sulfonamide] | 1.8
12 | CC(C=Cc1ccccc1)NCCCNS(=O)(=O)c1cccc2cnccc12 (stereo not drawn) [Example 171, N-[3-(α-Methylcinnamylamino)Propyl]-5-Isoquinolinesulfonamide] | 5.4
13 | COc1ccc(N2CCN(CC(Cc3ccc(N(C)S(=O)(=O)c4cccc5cnccc45)cc3)N(C)S(=O)(=O)c3cccc4cnccc34)CC2)cc1 (centres unmarked) [Example 131, N-[[1-{P-[N-5-Isoquinolinesulfonyl)-N-(Methylamino)Benzyl]}-2-[4-(P-Methoxyphenylpiperazinyl]Ethyl]]-N-Methyl-5-Isoquinolinesulfonamide] | 1.5
14 | COc1ccc(CC(CN2CCN(c3ccccc3)CC2)N(C)S(=O)(=O)c2cccc3cnccc23)cc1 (centres unmarked) [Example 38, N-[1-(P-Methoxybenzyl)-2-(4-Phenylpiperazinyl)Ethyl]-N-Methyl-5-Isoquinolinesulfonamide] | 8.1
15 | CC(C=Cc1ccc(O)cc1)NCCNS(=O)(=O)c1cccc2cnccc12 (centres unmarked) [Example 170] | 5.2
16 | CN(C(Cc1ccc(OS(=O)(=O)c2cccc3cnccc23)cc1)CN1CCCN(c2ccccc2)CC1)S(=O)(=O)c1cccc2cnccc12 (centres unmarked) [Example 81, N-{1-[p-(5-isoquinolinesulfonyloxy)benzyl]-2-(4-phenylhomopiperazinyl)ethyl}-N-methyl-5-isoquinolinesulfonamide] | 1.7
17 | CN(C(Cc1ccccc1)CN1CCN(c2ccccc2)CC1)S(=O)(=O)c1cccc2cnccc12 (centres unmarked) [Example 43, N-[1-benzyl-2-(4-phenylpiperazinyl)ethyl]-N-methyl-5-isoquinolinesulfonamide] | 0.36
18 | COc1ccc(C=CC(C)NCCNS(=O)(=O)c2cccc3cnccc23)cc1 (stereo not drawn) [Example 169, N-2-(4-Methoxy-α-Methylcinnamylamino)ethyll-5-Isoquinolinesulfonamide] | 4.6
19 | CN(C(Cc1ccc(O)cc1)CN1CCN(S(=O)(=O)c2ccccc2)CC1)S(=O)(=O)c1cccc2cnccc12 (centres unmarked) [Example 62, N-{2-[(4-Benzenesulfonyl)Piperazinyl)-1-(P-Hydroxybenzyl)-Ethyl}-N-Methyl-5-Isoquinolinesulfonamide] | 2.3

Row | SMILES | EC50 [µM]
20 | O=S(=O)(NCCNCC=Cc1ccccc1)c1cccc2cnccc12 [Example 201, N-(2-Cinnamylaminoethyl)-5-Isoquinolinesulfonamide.1/2 Fumarate] | 3.2
21 | COc1ccc(N2CCN(CC(Cc3ccc(OS(=O)(=O)c4cccc5cnccc45)cc3)N(C)S(=O)(=O)c3cccc4cnccc34)CC2)cc1 (centres unmarked) [Example 53, N-{1-[p-(5-isoquinolinesulfonyloxy)benzyl]-2-[4-(p-methoxyphenyl)piperazinyl]ethyl}-N-methyl-5-isoquinolinesulfonamide] | 1.3
22 | CN(C(Cc1ccc(O)cc1)CN1CCN(c2cccc(Cl)c2)CC1)S(=O)(=O)c1cccc2cnccc12 (centres unmarked) [Example 47, N-{2-[4-(m-chlorophenyl)piperazinyl]-1-(p-hydroxybenzyl)ethyl}-N-methyl-5-isoquinolinesulfonamide] | 0.39
23 | CN(C(Cc1ccc(O)cc1)CN1CCN(S(=O)(=O)Cc2ccccc2)CC1)S(=O)(=O)c1cccc2cnccc12 (centres unmarked) [Example 76, N-[2-(4-benzylsulfonylpiperazinyl)-1-(p-hydroxybenzyl)ethyl]-N-methyl-5-isoquinolinesulfonamide] | 2.9
24 | CN(C(Cc1ccc(O)cc1)CN1CCN(C(=O)OCc2ccccc2)CC1)S(=O)(=O)c1cccc2cnccc12 (centres unmarked) [Example 67, N-[2-(4-benzyloxycarbonylpiperazinyl)-1-(p-hydroxybenzyl)ethyl]-N-methyl-5-isoquinolinesulfonamide] | 2.2
25 | CC(C=Cc1ccc2c(c1)OCO2)NCCNS(=O)(=O)c1cccc2cnccc12 (centres unmarked) [Example 161] | 4.7
26 | CN(C(Cc1ccc(O)cc1)CN1CCN(c2ccccn2)CC1)S(=O)(=O)c1cccc2cnccc12 (centres unmarked) [Example 46, N-{1-(p-hydroxybenzyl)-2-[4-(2-pyridyl)piperazinyl]ethyl}-N-methyl-5-isoquinolinesulfonamide] | 4
27 | Cc1ccc(S(=O)(=O)Nc2ccc(C[C@@H](C(=O)N3CCN(c4ccccc4)CC3)N(C)S(=O)(=O)c3cccc4cnccc34)cc2)cc1 [Example 22, 1-[N-(5-isoquinolinesulfonyl)-N-methyl-p-(p-toluenesulfonylamino)phenylalanyl]-4-phenylpiperazine] | 1.8
28 | CC(C=Cc1cccs1)NCCNS(=O)(=O)c1cccc2cnccc12 (centres unmarked) [Example 164, N-{2-[1-Methyl-3-(2-Thienyl)-2-Procenylamino]ethyl}-5-Isoquinolinesulfonamide] | 4.1
29 | CC(C=Cc1ccco1)NCCNS(=O)(=O)c1cccc2cnccc12 (centres unmarked) [Example 165, N-{2-[3-(2-Furyl)-1-Methyl-2-Propenylamino]Ethyl}-5-Isoquinolinesulfonamide] | 11
30 | CN(C(Cc1ccc(O)cc1)CN1CCN(C(=O)c2ccccc2)CC1)S(=O)(=O)c1cccc2cnccc12 (centres unmarked) [Example 75, N-[2-(4-Benzoylpiperazinyl)-1-(P-Hydroxybenzyl)Ethyl]-N-Methyl-5-Isoquinolinesulfonamide] | 9.7
31 | COc1ccccc1N1CCN(CC(Cc2ccc(O)cc2)N(C)S(=O)(=O)c2cccc3cnccc23)CC1 (centres unmarked) [Example 56, N-{1-(p-hydroxybenzyl)-2-[4-(2-methoxyphenyl)piperazinyl]ethyl}-N-methyl-5-isoquinolinesulfonamide] | 1.2
32 | COc1ccc(N2CCN(CC(Cc3ccc(N4C(=O)c5ccccc5C4=O)cc3)NS(=O)(=O)c3cccc4cnccc34)CC2)cc1 (centres unmarked) [Example 125, N-{2-[4-(P-Methoxyphenyl)Piperazinyl]-1-(P-Phthalimidebenzyl)ethyl}-5-isoquinolinesulfonamide] | 9.2
33 | O=C([C@H](Cc1ccc(O)cc1)NS(=O)(=O)c1cccc2cnccc12)N1CCN(CCCc2ccccc2)CC1 [Example 33, 1-[N-(5-Isoquinolinesulfonyl)Tyrosyl]-4-(3-Phenylpropyl)Piperazine] | 21
34 | CN(C)c1ccc(C=CCNCCNS(=O)(=O)c2cccc3cnccc23)cc1 [Example 174] | 11
35 | CN(C(Cc1ccc(OS(=O)(=O)c2cccc3cnccc23)cc1)CN1CCN(c2ccccc2)CC1)S(=O)(=O)c1cccc2cnccc12 (centres unmarked) [Example 35] | 6.9
36 | O=C([C@H](Cc1ccc(O)cc1)NS(=O)(=O)c1cccc2cnccc12)N1CCCN(CCCc2ccccc2)CC1 [Example 124, 1-[N-(5-Isoquinolinesulfonyl)Tyrosyl]-4-(3-Phenylpropyl)Homopiperazine] | 11
37 | COc1ccc(N2CCN(CC(Cc3ccc(O)cc3)NS(=O)(=O)c3cccc4cnccc34)CC2)cc1 (centres unmarked) [Example 55, N-{1-(p-hydroxybenzyl)-2-[4-(p-methoxyphenyl)piperazinyl]ethyl}-5-isoquinolinesulfonamide] | 8.6
38 | O=S(=O)(NCCCNCC=Cc1ccccc1)c1cccc2cnccc12 [Example 188, N-(3-Cinnamylaminopropyl)-5-Isoquinolinesulfonamide] | 4
